Laboratory results taken from ChEMBL document CHEMBL1126320, “N,N'-disubstituted guanidine high-potency sweeteners” (J Med Chem, 1992).

Tests used:
[1] = Sweetness potency at 2% sucrose solution
[2] = Sweetness potency at 1 mg/mL sucrose solution; weakly bitter
[3] = Sweetness potency at 4% sucrose solution

Sweetness potency [1]	Compound	further results
200000	N#Cc1ccc(N/C(=N\CC(=O)O)NC(c2ccccc2)c2ccccc2)cc1	
200	N/C(=N\C1CCCCCCC1)NCC(=O)O	
	C[C@H](/N=C(\N)NCC(=O)O)c1ccccc1	Sweetness potency [2]: weakly bitter
	N/C(=N\CC(=O)O)NCC1CCCCC1	Sweetness potency [2]: weakly bitter
170000	N#Cc1ccc(N/C(=N/CC(=O)O)NC2CCCCCCC2)cc1	
35000	N#Cc1ccc(N/C(=N\CC(=O)O)NCC2CCCCC2)cc1	
28000	C[C@H](/N=C(/NCC(=O)O)Nc1ccc(C#N)cc1)c1ccccc1	
	N/C(=N\C(c1ccccc1)c1ccccc1)NCC(=O)O	Sweetness potency [3]: 400
